# Experimental data from patent US20240090503A1, “FUNGICIDAL OXADIAZOLES AND THEIR MIXTURES” (FMC CORPORATION, priority 2020, published 2024).
# Marks after values point to notes of the source that are not given here.
# Key:
# Format in all cases: in vivo
# [1] = system: Phakopsora pachyrhizi (the causal agent of Asian soybean rust); experiment: Test E: compounds alone and mixtures sprayed on soybean seedlings, Asian soybean rust, observed and Colby-expected disease control; set-up: key to Test E Obsd: 100 = 100% disease control, 0 = no disease control
# Excerpt: The general protocol for preparing test compositions for TEST E was as follows: Compound 316, Compound 376, Compound 225, Compound 229, Compound 257, Compound 394, Compound 506, Compound 507, Compound 508, Compound 509, Compound 511, Compound 512, methyl N-[[5-[1-[2,6-difluoro-4-(1-methylethyl)phenyl]-1H-pyrazol-3-yl]-2-methylphenyl]methyl]carbamate (b54.11a), methyl N-[[5-[l-(4-cyclopropyl-2,6-difluorophenyl)-1H-pyrazol-3-yl]-2-methylphenyl]methyl]carbamate (b54.11d), ethyl 1-[[4-[[(1Z)-2-ethoxy-3,3,3-trifluoro-1-propen-1-yl]oxy]phenyl]methyl]-1H-pyrazole-4-carboxylate (b54.12a), ethyl 1-[[4-[[2-(trifluoromethyl)-1,3-dioxolan-2-yl]methoxy]phenyl]methyl]-1H-pyrazole-4-carboxylate (b54.13a), azoxystrobin, benzovindiflupyr, bixafen, chlorothalonil, cyproconazole, epoxiconazole, fenpropidin, fenpropimorph, fluindapyr, flutriafol, fluxapyroxad, inpyrfluxam, metominostrobin, picoxystrobin, prothioconazole, pydiflumetofen, pyraclostrobin, tebuconazole and trifloxystrobin were obtained as unformulated, technical-grade materials. Copper hydroxide and mancozeb was obtained as a formulated product marketed under the trademarks KOCIDE 3000 and MANZATE, respectively. Unformulated materials were first dissolved in acetone and then suspended at the desired concentration (in ppm) in acetone and purified water (50/50 mixture by volume) containing 250 ppm of the surfactant Trem® 014 (polyhydric alcohol esters). Formulated materials were dispersed in sufficient water to give the desired concentration, and neither organic solvent nor surfactant was added to the suspension. The resulting test mixtures were then used in TEST E. The tests were run on four individual plants and the results reported as the mean average of the four plants.
# The presence of a synergistic effect between two active ingredients can be established with the aid of the Colby equation (see Colby, S. R. “Calculating Synergistic and Antagonistic Responses of Herbicide Combinations”, Weeds, (1967), 15, 20-22):
# Using the method of Colby, the presence of a synergistic interaction between two active ingredients is established by first calculating the predicted activity, p, of the mixture based on activities of the two components applied alone. If p is lower than the experimentally established effect, synergism has occurred. In the equation above, A is the fungicidal activity in percentage control of one component applied alone at rate x. The B term is the fungicidal activity in percentage control of the second component applied at rate y. The equation estimates p, the expected fungicidal activity of the mixture of A at rate x with B at rate y if their effects are strictly additive and no interaction has occurred.
# The test mixture was sprayed to the point of run-off on soybean seedlings. The following day the seedlings were inoculated with a spore suspension of Phakopsora pachyrhizi (the causal agent of Asian soybean rust) and incubated in a saturated atmosphere at 22° C. for 24 h and then moved to a growth chamber at 22° C. for 8 days, after which time visual disease ratings were made.
# Results for Test E are given below in Tables A-1 through K-2. Each table corresponds to a set of evaluations performed together at the same time. In each table, a rating of 100 indicates 100% disease control and a rating of 0 indicates no disease control (relative to the controls). Columns labeled “Obsd” indicate the average of results observed from test run on four individual plants. Columns labeled “Exp” indicate the expected value for each treatment mixture using the Colby equation, as described above.
# [2] = system: Zymoseptoria tritici (the causal agent of wheat leaf blotch); experiment: Test B: preventive spray on wheat seedlings, wheat leaf blotch, visual disease rating
# Procedure, shortened: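 This is a preventive test: spray application preceded Zymoseptoria tritici spore inoculation by one day. Test suspensions were in acetone/water with 250 ppm PEG400 surfactant, at the listed ppm rate. After 48 h saturated humidity at 24° C and 17 days at 20° C, visual ratings scored control from 0 to 100%.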
# [3] = system: Phakopsora pachyrhizi (the causal agent of Asian soybean rust); experiment: Test A: preventive spray on soybean seedlings, Asian soybean rust, visual disease rating
# Procedure, shortened: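 Compound in acetone/water (50/50) with 250 ppm PEG400 sprayed to run-off on soybean seedlings; inoculated next day with Phakopsora pachyrhizi spores. Held 24 h at 22° C in saturated atmosphere, then 8 days in a 22° C growth chamber before visual rating as % disease control relative to controls.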
# [4] = system: Puccinia recondita f. sp. tritici (the causal agent of wheat leaf rust); experiment: Test C: preventive spray on wheat seedlings, wheat leaf rust, visual disease rating
# Procedure, shortened: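 Wheat seedlings sprayed to run-off with compound in acetone/water (50/50) with 250 ppm PEG400, then inoculated with spores the following day. After 24 h saturated humidity at 20° C. and 6 days in growth chamber at 20° C., disease rated visually as % control relative to untreated controls.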
# [5] = Table B-1, component (b) alone: bixafen 11.327, fluxapyroxad 2.757, fluindapyr 8.820 ppm
# [6] = Table B-1, component (b) alone: bixafen 19.525, fluxapyroxad 4.748, fluindapyr 15.230 ppm
# [7] = Table B-2, component (b) alone: bixafen 11.327, fluxapyroxad 2.757, fluindapyr 8.820 ppm
# [8] = Table B-2, component (b) alone: bixafen 19.525, fluxapyroxad 4.748, fluindapyr 15.230 ppm
# [9] = test suspension 250 ppm, wheat seedlings
# [10] = test suspension 10 ppm, soybean seedlings, 100 = 100% disease control, 0 = no control
# [11] = test suspension 10 ppm, wheat seedlings
# [12] = 250 ppm test suspension, wheat seedlings, 100 = 100% disease control
# [13] = 10 ppm test suspension, soybean seedlings, 100 = 100% disease control, 0 = no control
# [14] = 10 ppm test suspension, wheat seedlings, 100 = 100% disease control, 0 = no control
molecule,measurement,setting,value
"CO/C=C(/C(=O)OC)c1ccccc1COc1cccc(C(F)(F)F)n1 [picoxystrobin, reference compound]",Test E Obsd (disease control rating),"[1]; Table A-1, component (b) alone: b54.13a 1.422, b54.12a 0.303, b54.11a 0.403, picoxystrobin 20.596 ppm",73%
same,Test E Obsd (disease control rating),"[1]; Table A-1, component (b) alone: b54.13a 2.276, b54.12a 0.489, b54.11a 0.652, picoxystrobin 38.865 ppm",75%
same,Test E Obsd (disease control rating),"[1]; Table A-2, component (b) alone: b54.13a 1.422, b54.12a 0.303, b54.11a 0.403, b54.11d 0.346, picoxystrobin 20.596 ppm",73%
same,Test E Obsd (disease control rating),"[1]; Table A-2, component (b) alone: b54.13a 2.276, b54.12a 0.489, b54.11a 0.652, b54.11d 0.764, picoxystrobin 33.865 ppm",75%
same,Test E Obsd,"[1]; applied alone, 20.596 ppm",28
same,Test E Obsd,"[1]; applied alone, 33.865 ppm",43
same,Test E Obsd,"[1]; applied alone, 33.875 ppm",43
same,Test E Obsd,"[1]; picoxystrobin alone, 20.596 ppm",28
same,Test E Obsd,"[1]; picoxystrobin alone, 33.865 ppm",43
"OC(Cc1ccccc1Cl)(Cn1nc[nH]c1=S)C1(Cl)CC1 (centres unmarked) [prothioconazole, reference compound]",pest or weed control at 10.165 ppm,"[1]; Phakopsora pachyrhizi, applied alone, 10.165 ppm, read-out: Test E Obsd",34%
same,pest or weed control at 16.339 ppm,"[1]; Phakopsora pachyrhizi, applied alone, 16.339 ppm, read-out: Test E Obsd",56%
"CC1CC(C)(C)c2c(F)ccc(NC(=O)c3cn(C)nc3C(F)F)c21 (centres unmarked) [fluindapyr, reference compound]",Test E Obsd (disease control rating),[1]; [5],61%
same,Test E Obsd (disease control rating),[1]; [6],79%
same,Test E Obsd (disease control rating),[1]; [7],61%
same,Test E Obsd (disease control rating),[1]; [8],79%
inpyrfluxam [reference compound],Test E Obsd,"[1]; inpyrfluxam alone, 0.448 ppm",56
same,Test E Obsd,"[1]; inpyrfluxam alone, 1.059 ppm",79
"CON(C(=O)c1cn(C)nc1C(F)F)C(C)Cc1c(Cl)cc(Cl)cc1Cl (centres unmarked) [pydiflumetofen, reference compound]",Test E Obsd (disease control rating),"[1]; Table E-1, component (b) alone: epoxiconazole 46.795, pydiflumetofen 70.950 ppm",0%
same,Test E Obsd (disease control rating),"[1]; Table E-1, component (b) alone: epoxiconazole 89.631, pydiflumetofen 135.850 ppm",73%
same,Test E Obsd (disease control rating),"[1]; Table E-2, component (b) alone: epoxiconazole 46.795, pydiflumetofen 70.950 ppm",0%
same,Test E Obsd (disease control rating),"[1]; Table E-2, component (b) alone: epoxiconazole 89.631, pydiflumetofen 135.850 ppm",73%
same,Test E Obsd (disease control rating),"[1]; Table G-1, component (b) alone: pydiflumetofen 41.364, pyraclostrobin 45.860, metominostrobin 29.673 ppm",49%
same,Test E Obsd (disease control rating),"[1]; Table G-1, component (b) alone: pydiflumetofen 128.793, pyraclostrobin 137.503, metominostrobin 86.003 ppm",36%
same,Test E Obsd (disease control rating),"[1]; Table G-2, component (b) alone: pydiflumetofen 41.364, pyraclostrobin 45.860, metominostrobin 29.673 ppm",49%
same,Test E Obsd (disease control rating),"[1]; Table G-2, component (b) alone: pydiflumetofen 128.793, pyraclostrobin 137.503, metominostrobin 86.003 ppm",36%
"Cn1cc(C(=O)Nc2cccc3c2[C@@H]2CC[C@H]3C2=C(Cl)Cl)c(C(F)F)n1 (racemic) [benzovindiflupyr, reference compound]",Test E Obsd (disease control rating),"[1]; Table F-1, component (b) alone: benzovindiflupyr 0.606, prothioconazole 10.165, chlorothalonil 138.129 ppm",67%
same,Test E Obsd (disease control rating),"[1]; Table F-1, component (b) alone: benzovindiflupyr 0.980, prothioconazole 16.339, chlorothalonil 222.081 ppm",67%
same,Test E Obsd (disease control rating),"[1]; Table F-2, component (b) alone: benzovindiflupyr 0.606, prothioconazole 10.165, chlorothalonil 138.129 ppm",67%
same,Test E Obsd (disease control rating),"[1]; Table F-2, component (b) alone: benzovindiflupyr 0.980, prothioconazole 16.339, chlorothalonil 222.081 ppm",67%
same,Test E Obsd,"[1]; applied alone, 0.606 ppm",51
same,Test E Obsd,"[1]; applied alone, 0.980 ppm",68
"Cn1cc(C(=O)Nc2ccc(F)cc2-c2ccc(Cl)c(Cl)c2)c(C(F)F)n1 [bixafen, reference compound]",Test E Obsd (disease control rating),[1]; [5],54%
same,Test E Obsd (disease control rating),[1]; [6],55%
same,Test E Obsd (disease control rating),[1]; [7],54%
same,Test E Obsd (disease control rating),[1]; [8],55%
CCOC(=O)C1=NOC(Cc2ccc(-c3noc(C(F)(F)F)n3)cc2)C1 (centres unmarked) [compound 29],Test B disease control rating,[2]; [9],94* %
same,Test A disease control rating,[3]; [10],73%
same,Test C disease control rating,[4]; [11],19%
"COC(=O)c1cnn(Cc2ccc(-c3noc(C(F)(F)F)n3)cc2)c1 [Compound 21, methyl 1-[[4-[5-(trifluoromethyl)-1,2,4-oxadiazol-3-yl]phenyl]methyl]-1H-pyrazole-4-carboxylate]",pest or weed control at 100 µg/mL,"[2]; Zymoseptoria tritici, 456 h, read-out: Test B disease control rating",97%
same,pest or weed control at 10 µg/mL,"[3]; Phakopsora pachyrhizi, 216 h, read-out: Test A disease control rating",100%
same,pest or weed control at 10 µg/mL,"[4]; Puccinia recondita, 168 h, read-out: Test C disease control rating",100%
C#CCOC(=O)c1cnn(Cc2ccc(-c3noc(C(F)(F)F)n3)cc2)c1 [compound 56],Test B disease control rating,"[2]; test suspension 100 ppm (** next to rating), wheat seedlings",68** %
same,Test A disease control rating,[3]; [10],100%
same,Test C disease control rating,[4]; [11],100%
"O=C(NCCOC(F)(F)F)c1coc(Cc2ccc(-c3noc(C(F)(F)F)n3)cc2)n1 [Compound 401, N-[2-(trifluoromethoxy)ethyl]-2-[[4-[5-(trifluoromethyl)-1,2,4-oxadiazol-3-yl]phenyl]methyl]-4-oxazolecarboxamide]",pest or weed control at 250 ppm,"[2]; Zymoseptoria tritici, 456 h, 250 ppm test suspension, wheat seedlings, 100 = 100% disease control",77%
same,pest or weed control at 10 ppm,"[3]; Phakopsora pachyrhizi, 216 h, 10 ppm test suspension, soybean seedlings, 100 = 100% disease control, 0 = no control",100%
same,pest or weed control at 10 ppm,"[4]; Puccinia recondita, 168 h, 10 ppm test suspension, wheat seedlings, 100 = 100% disease control, 0 = no control",99%
FC(F)(F)c1nc(-c2ccc(CNC3CC3)s2)no1 [compound 191],Test B disease control rating,[2]; [9],96* %
same,Test A disease control rating,"[3]; test suspension 50 ppm, soybean seedlings",100%
same,Test C disease control rating,"[4]; test suspension 50 ppm, wheat seedlings",100%
O=C(c1ccc(Cc2ccc(-c3noc(C(F)(F)F)n3)cc2)o1)C(F)(F)F [compound 450],Test B disease control rating,[2]; [12],41* %
same,Test A disease control rating,[3]; [13],94%
same,Test C disease control rating,[4]; [14],0%
O=C(NCC1CC1)c1coc(Cc2ccc(-c3noc(C(F)(F)F)n3)cc2)n1 [compound 327],Test B disease control rating,[2]; [9],94* %
same,Test A disease control rating,[3]; [10],100%
same,Test C disease control rating,[4]; [11],100%
O=C(NCCn1cccn1)c1coc(COc2ccc(-c3noc(C(F)(F)F)n3)cc2)n1 [compound 466],Test B disease control rating,[2]; [12],3* %
same,Test A disease control rating,[3]; [13],100%
same,Test C disease control rating,[4]; [14],55%
O=C(c1coc(Cc2ccc(-c3noc(C(F)(F)F)n3)cc2)n1)N1CCCC1 [compound 227],Test B disease control rating,[2]; [9],99* %
same,Test A disease control rating,[3]; [10],100%
same,Test C disease control rating,[4]; [11],97%
